Results on 4 compounds are retold here after the supplement of paper PMC10307832.

Common to all, as to experiment: relative viability (nuclei count vs DMSO), 5 days (fraction); higher = more cells survive
In one assay the test system is NCI-H1648. The essentials: (§1)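 Lung cancer cell lines were pin-tool dosed in 1536-well plates on the day after seeding, with either a lone drug or a fixed anchor-drug dose plus five library-drug doses (not always all listed) in √10 steps. Nuclei were counted on 4× images after 5 days. Relative viability is the ratio of treated-well to vehicle-well nuclei counts, with each value a median of duplicate plates.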

A further assay relates to NCI-H2170. The essentials: as §1
Another assay concerns NCI-H1703. The essentials: as §1
A further assay has as its system NCI-H727. Summed up:
as §1

Another assay concerns NCI-H2023. The essentials: as §1
In the next assay the test system is NCI-H520. The essentials: as §1
Another assay has as its system A549. The essentials: as §1

Turning to `Cc1cn(-c2cc(NC(=O)c3ccc(C)c(Nc4nccc(-c5cccnc5)n4)c3)cc(C(F)(F)F)c2)cn1` [Nilotinib] + NC(=O)Nc1cc(-c2cccc(F)c2)sc1C(=O)N[C@H]1CCCNC1 [AZD7762] (partner 0.2 µM), the relative viability with NCI-H1648 (first compound 0.001 µM) turned out to be 0.561; in the assay with NCI-H1648 (first compound 0.003162 µM), 0.664; in the assay with NCI-H1648 (first compound 0.01 µM), 0.663; in the assay with NCI-H1648 (first compound 0.03162 µM) it was 0.569; in the assay on NCI-H1648 (first compound 0.1 µM), 0.65; with NCI-H2170 (first compound 0.001 µM), 0.744. Also, the relative viability is 1.32 in the assay on NCI-H2170 (first compound 0.003162 µM); 0.856 with NCI-H2170 (first compound 0.01 µM); 0.602 with NCI-H2170 (first compound 0.03162 µM); 0.758 with NCI-H2170 (first compound 0.1 µM); 0.117 in the assay with NCI-H1703 (first compound 0.001 µM); 0.121 in the assay with NCI-H1703 (first compound 0.003162 µM). The relative viability was 0.11 with NCI-H1703 (first compound 0.01 µM); 0.121 in the assay on NCI-H1703 (first compound 0.03162 µM); 0.117 in the assay on NCI-H1703 (first compound 0.1 µM); 0.574 with NCI-H727 (first compound 0.001 µM); 0.528 in the assay on NCI-H727 (first compound 0.003162 µM); 0.456 with NCI-H727 (first compound 0.01 µM). Moreover, the figures for the relative viability with NCI-H727 (first compound 0.03162 µM) and in the assay on NCI-H727 (first compound 0.1 µM) were 0.573 and 0.58, respectively.
On to `CN1CCN(CCOc2cc(OC3CCOCC3)c3c(Nc4c(Cl)ccc5c4OCO5)ncnc3c2)CC1` [Saracatinib] + CC(=O)Nc1cccc(-n2c(=O)n(C3CC3)c(=O)c3c(Nc4ccc(I)cc4F)n(C)c(=O)c(C)c32)c1 [Trametinib] (partner 0.02 µM), for which the relative viability with NCI-H1648 (first compound 0.02 µM) was found to be 0.436; in the assay on NCI-H1648 (first compound 0.2 µM), 0.47; in the assay on NCI-H1648 (first compound 0.6325 µM), 0.564; in the assay on NCI-H1648 (first compound 2 µM), 0.357; in the assay with NCI-H2170 (first compound 0.02 µM), 0.917; in the assay with NCI-H2170 (first compound 0.2 µM), 0.859. Besides, the relative viability in the assay with NCI-H2170 (first compound 0.6325 µM) was 0.916; in the assay on NCI-H2170 (first compound 2 µM) it was 0.862; with NCI-H2023 (first compound 0.02 µM), 0.52; with NCI-H2023 (first compound 0.2 µM) it was 0.269; with NCI-H2023 (first compound 0.6325 µM), 0.487; in the assay with NCI-H2023 (first compound 2 µM), 0.348. Besides, the relative viability in the assay with NCI-H520 (first compound 0.02 µM) worked out at 0.703; with NCI-H520 (first compound 0.2 µM), 0.53; in the assay with NCI-H520 (first compound 0.6325 µM) it was 0.586; in the assay with NCI-H520 (first compound 2 µM) it was 0.273; in the assay with NCI-H727 (first compound 0.02 µM) it was 0.369; with NCI-H727 (first compound 0.2 µM), 0.402. Further, the relative viability in the assay on NCI-H727 (first compound 0.6325 µM) was found to be 0.379; in the assay on NCI-H727 (first compound 2 µM) it was 0.308.
With `Cc1csc(=NC2CCCCC2)n1/N=C/c1ccc(O)c(O)c1O` [MIM1] + Nc1ncn([C@H]2C[C@H](O)[C@@H](CO)O2)c(=O)n1 [Decitabine] (partner 2 µM), the relative viability came out at 0.523 in the assay on NCI-H1648 (first compound 0.2 µM); 0.376 in the assay on NCI-H1648 (first compound 0.6325 µM); 0.486 in the assay with NCI-H1648 (first compound 2 µM); 0.382 in the assay on NCI-H1648 (first compound 6.325 µM); 0.35 in the assay on NCI-H1648 (first compound 20 µM); 0.448 in the assay on NCI-H2170 (first compound 0.2 µM). The relative viability with NCI-H2170 (first compound 0.6325 µM) amounted to 0.455; in the assay with NCI-H2170 (first compound 2 µM) it was 0.494; in the assay on NCI-H2170 (first compound 6.325 µM), 0.401; in the assay with NCI-H2170 (first compound 20 µM), 0.27; in the assay on NCI-H2023 (first compound 0.2 µM), 0.24; in the assay with NCI-H2023 (first compound 0.6325 µM) it was 0.215. The relative viability turned out to be 0.212 in the assay on NCI-H2023 (first compound 2 µM); 0.157 in the assay on NCI-H2023 (first compound 6.325 µM); 0.0821 with NCI-H2023 (first compound 20 µM); 0.217 in the assay on A549 (first compound 0.2 µM); 0.208 in the assay with A549 (first compound 0.6325 µM); 0.353 in the assay with A549 (first compound 2 µM). The relative viability with A549 (first compound 6.325 µM) turned out to be 0.272; in the assay on A549 (first compound 20 µM), 0.0686; with NCI-H520 (first compound 0.2 µM) it was 0.574; in the assay with NCI-H520 (first compound 0.6325 µM), 0.485; with NCI-H520 (first compound 2 µM), 0.526; in the assay on NCI-H520 (first compound 6.325 µM), 0.43. The relative viability in the assay with NCI-H520 (first compound 20 µM) is 0.284; in the assay on NCI-H727 (first compound 0.2 µM), 0.994; in the assay on NCI-H727 (first compound 0.6325 µM), 0.818; with NCI-H727 (first compound 2 µM) it was 0.841; with NCI-H727 (first compound 6.325 µM), 0.879; in the assay with NCI-H727 (first compound 20 µM) it was 0.574.
With `CCNC(=O)c1noc(-c2cc(C(C)C)c(O)cc2O)c1-c1ccc(CN2CCOCC2)cc1` [Luminespib] + CC(=O)c1c(C)c2cnc(Nc3ccc(N4CCNCC4)cn3)nc2n(C2CCCC2)c1=O [Palbociclib] (partner 0.5 µM), the relative viability in the assay with NCI-H1648 (first compound 0.002 µM) turned out to be 0.216; in the assay with NCI-H1648 (first compound 0.006325 µM) it was 0.336; in the assay with NCI-H1648 (first compound 0.02 µM), 0.246; in the assay with NCI-H1648 (first compound 0.06325 µM) it was 0.361; in the assay on NCI-H1648 (first compound 0.2 µM), 0.387; in the assay on NCI-H2170 (first compound 0.002 µM), 0.41. Moreover, the relative viability in the assay with NCI-H2170 (first compound 0.006325 µM) was 0.383; in the assay on NCI-H2170 (first compound 0.06325 µM), 0.376; in the assay on NCI-H2170 (first compound 0.2 µM), 0.315; in the assay with NCI-H2023 (first compound 0.002 µM) it was 0.423; in the assay with NCI-H2023 (first compound 0.006325 µM) it was 0.364; with NCI-H2023 (first compound 0.02 µM) it was 0.309. The relative viability came to 0.0518 in the assay on NCI-H2023 (first compound 0.06325 µM); 0.0463 in the assay on NCI-H2023 (first compound 0.2 µM); 0.301 in the assay on NCI-H520 (first compound 0.002 µM); 0.213 with NCI-H520 (first compound 0.006325 µM); 0.176 in the assay with NCI-H520 (first compound 0.02 µM); 0.121 with NCI-H520 (first compound 0.06325 µM). For the same compound, the relative viability is 0.135 in the assay with NCI-H520 (first compound 0.2 µM); 0.668 in the assay on NCI-H727 (first compound 0.002 µM); 0.665 in the assay on NCI-H727 (first compound 0.006325 µM); 0.631 in the assay on NCI-H727 (first compound 0.02 µM); 0.45 in the assay with NCI-H727 (first compound 0.06325 µM); 0.424 in the assay with NCI-H727 (first compound 0.2 µM).
